Measured values as given in ChEMBL document CHEMBL2073914, “Are MDCK cells transfected with the human MRP2 gene a good model of the human intestinal mucosa?” (Pharm Res, 2002).

Columns and labels:
Assay type in all cases: functional, cell-based
[1] = biological target: T1, ATP-binding cassette sub-family C member 2 (Homo sapiens, UniProt Q92887); assay: TP_TRANSPORTER: inhibition of Vinblastine transepithelial transport (basal to apical)(GF120918: 12 uM) in MRP2-expressing MDCK cells
[2] = biological target: T1, ATP-binding cassette sub-family C member 2; assay: TP_TRANSPORTER: inhibition of Vinblastine transepithelial transport (basal to apical) in MRP2-expressing MDCK cells
[3] = biological target: T1, ATP-binding cassette sub-family C member 2; assay: TP_TRANSPORTER: inhibition of Vinblastine transepithelial transport (basal to apical)(Quinidine: 15 uM) in MRP2-expressing MDCK cells

T1 sequence (Q92887 whole entry): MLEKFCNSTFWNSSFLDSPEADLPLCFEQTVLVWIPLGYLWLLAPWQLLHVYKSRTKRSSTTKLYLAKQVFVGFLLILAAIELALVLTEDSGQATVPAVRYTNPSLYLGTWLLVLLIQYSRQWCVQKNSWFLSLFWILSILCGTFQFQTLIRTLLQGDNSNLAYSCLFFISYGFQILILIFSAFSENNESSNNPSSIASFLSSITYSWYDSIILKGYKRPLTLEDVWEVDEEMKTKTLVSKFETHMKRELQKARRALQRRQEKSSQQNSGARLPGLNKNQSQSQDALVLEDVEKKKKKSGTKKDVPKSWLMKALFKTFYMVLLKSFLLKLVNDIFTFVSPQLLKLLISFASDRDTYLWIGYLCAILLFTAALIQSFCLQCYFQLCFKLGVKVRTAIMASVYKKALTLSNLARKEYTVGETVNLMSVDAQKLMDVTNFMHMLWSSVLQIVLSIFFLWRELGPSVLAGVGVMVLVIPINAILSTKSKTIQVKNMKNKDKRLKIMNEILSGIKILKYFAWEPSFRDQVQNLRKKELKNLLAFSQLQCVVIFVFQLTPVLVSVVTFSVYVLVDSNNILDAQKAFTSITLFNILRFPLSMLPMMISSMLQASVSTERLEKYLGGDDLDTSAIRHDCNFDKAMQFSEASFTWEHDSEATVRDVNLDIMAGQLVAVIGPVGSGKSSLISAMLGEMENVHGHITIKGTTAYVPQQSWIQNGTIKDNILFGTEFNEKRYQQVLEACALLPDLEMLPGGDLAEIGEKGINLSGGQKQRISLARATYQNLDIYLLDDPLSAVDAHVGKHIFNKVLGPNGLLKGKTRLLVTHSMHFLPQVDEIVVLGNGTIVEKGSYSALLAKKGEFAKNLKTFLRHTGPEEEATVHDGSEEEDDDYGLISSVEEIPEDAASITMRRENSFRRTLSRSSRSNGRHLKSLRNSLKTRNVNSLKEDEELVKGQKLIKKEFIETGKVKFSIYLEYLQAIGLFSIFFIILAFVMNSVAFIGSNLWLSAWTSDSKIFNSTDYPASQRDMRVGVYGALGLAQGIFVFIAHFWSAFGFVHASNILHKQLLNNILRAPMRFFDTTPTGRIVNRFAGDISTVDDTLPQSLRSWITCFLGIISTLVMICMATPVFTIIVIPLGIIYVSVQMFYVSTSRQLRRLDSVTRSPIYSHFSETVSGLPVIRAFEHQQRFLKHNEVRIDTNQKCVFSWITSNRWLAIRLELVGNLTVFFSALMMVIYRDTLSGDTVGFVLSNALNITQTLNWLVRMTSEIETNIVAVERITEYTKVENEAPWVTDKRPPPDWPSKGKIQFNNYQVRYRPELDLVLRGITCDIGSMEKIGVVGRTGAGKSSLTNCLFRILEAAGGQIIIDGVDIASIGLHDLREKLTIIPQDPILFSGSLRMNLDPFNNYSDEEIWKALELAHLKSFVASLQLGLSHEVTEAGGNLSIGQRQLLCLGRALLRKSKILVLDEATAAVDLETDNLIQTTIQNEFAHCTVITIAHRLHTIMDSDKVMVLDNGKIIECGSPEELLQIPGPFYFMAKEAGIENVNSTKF

| Ki [2] [µM] | SMILES | other results |
| --- | --- | --- |
|  | COc1cc2c(cc1OC)CN(CCc1ccc(NC(=O)c3cccc4c(=O)c5cccc(OC)c5[nH]c34)cc1)CC2.Cl [ELACRIDAR HYDROCHLORIDE] | Ki [1]: is not an inhibitor [Ki=No inhibition] |
| 49.4 | COc1cccc2c1C(=O)c1c(O)c3c(c(O)c1C2=O)C[C@@](O)(C(C)=O)C[C@@H]3O[C@H]1C[C@H](N)[C@H](O)[C@H](C)O1 [DAUNORUBICIN] |  |
|  | C=C[C@H]1CN2CC[C@H]1C[C@@H]2[C@@H](O)c1ccnc2ccc(OC)cc12 [QUINIDINE] | Ki [3]: is not an inhibitor [Ki=No inhibition] |
| 295 | COC(=O)[C@H]1[C@H]2C[C@@H]3c4[nH]c5cc(OC)ccc5c4CCN3C[C@H]2C[C@@H](OC(=O)c2cc(OC)c(OC)c(OC)c2)[C@@H]1OC [RESERPINE] |  |
| 26.4 | CN(C)C(=O)CCSC(SCCC(=O)O)c1cccc(/C=C/c2ccc3ccc(Cl)cc3n2)c1 (configuration not stated) [MK-571] |  |
| 802 | CC[C@]1(O)C[C@H]2CN(CCc3c([nH]c4ccccc34)[C@@](C(=O)OC)(c3cc4c(cc3OC)N(C=O)[C@H]3[C@@](O)(C(=O)OC)[C@H](OC(C)=O)[C@]5(CC)C=CCN6CC[C@]43[C@@H]65)C2)C1 [VINCRISTINE] |  |
| 756 | COc1cc([C@@H]2c3cc4c(cc3[C@@H](O[C@@H]3O[C@@H]5CO[C@@H](C)O[C@H]5[C@H](O)[C@H]3O)[C@H]3COC(=O)[C@H]23)OCO4)cc(OC)c1O [ETOPOSIDE] |  |
